This is an account of results in publication PMC3746831 (Pharmaceutical research, 2013).

Read-outs that look alike come from different tables or passages of the source.

The subject of data set [1] is Herpes Simplex Virus 2 (HSV-2), MS strain. Put plainly: Plaque reduction assay for HSV-2 in HFF cells. It counts as cell-based. To be noted: for EC50: read-out: HSV-2 EC50; for EC90: read-out: HSV-2 EC90. For orientation: Plaques are areas of infected cells; plaque reduction assays count them against a control.
Data set [2] deals with Epstein-Barr Virus (EBV), Akata. Put plainly: DNA hybridization assay for EBV in Akata cells. Format: cell-based. To be noted: 72 h; for EC50: read-out: EBV EC50; for EC90: read-out: EBV EC90.
The test system of data set [3] is Herpes Simplex Virus 1 (HSV-1), E-377 strain. The experiment in a line: Plaque reduction assay for HSV-1 in HFF cells. It counts as cell-based. To be noted: for EC50: read-out: HSV-1 EC50; for EC90: read-out: HSV-1 EC90.
In data set [4] the test system is Human Cytomegalovirus (HCMV), AD169 strain. Put plainly: Plaque reduction assay for HCMV in HFF cells. It counts as cell-based. The note with it: for EC50: read-out: HCMV EC50, control is GCV; for EC90: read-out: HCMV EC90, control is GCV.
The test system of another data set is Akata cells. The experiment in a line: in vitro. Format: cell-based, human.
Another data set has as its system HFF cells. Put plainly: in vitro. Format: cell-based, human.
A short description of data set [5]: in vitro. It counts as cell-based, human. To be noted: human.
A short description of data set [6]: in vitro. Format: cell-based, human. The note with it: human. The source holds these as a separate data set.
Data set [7] in a line: Enzymatic hydrolysis in cornea homogenate. The note with it: 100 μM prodrug, 0.5mg/mL protein, 34°C.
A further data set concerns HCEC cells. The experiment in a line: Cellular uptake study on HCEC cells. It counts as cell-based, human. To be noted: sodium free DPBS, 37°C, relative to uptake with sodium.
The nature of data set [8]: Enzymatic hydrolysis in iris-ciliary body. To be noted: 100 μM prodrug, 34°C.
A short description of data set [9]: Enzymatic hydrolysis in lens homogenate. The note with it: 100 μM prodrug, 34°C.
Where [10] appears, read: Akata cells, viral DNA accumulation.
Setting [11] is: human gammaherpesvirus 4, Akata.

Regarding `CCCCCCC(O)CCCCCCCCCCC(=O)OCCOCn1cnc2c(=O)[nH]c(N)nc21` (stereo not shown) [12HS-ACV, 12hydroxystearicacid-acyclovir], the “Increase in antiviral activity against HSV-2 relative to ACV (by EC50)” value in [1] (from EC50 values) is recorded as more than 15 fold. Further, the EC50 (as a rule, the concentration at which the effect is half-maximal) was 0.41 µM in data set [1] (MS strain, HFF cells); 35.8 µM in [2] (setting [10]); 1.16 µM in [3] (E-377 strain, HFF cells); 101 µM in data set [4]. In addition, the EC90 – broadly, the point of the concentration-response curve where the effect stands at 90% – in [1] (MS strain, HFF cells) is more than 300 µM; in [2] (setting [10]), 55 µM; in [3] (E-377 strain, HFF cells), 6.24 µM; in data set [4], 137 µM. In [3] (from EC50 values), the “Increase in antiviral activity against HSV-1 relative to ACV (by EC50)” value was “greater than 3 fold”. The half-maximal cytotoxic concentration (CC50) (commonly the concentration giving 50% cytotoxicity) in the data set on Akata cells was 47.3 µM.

`CCCCCCC(O)CC=CCCCCCCCC(=O)OCCOCn1cnc2c(=O)[nH]c(N)nc21` (stereo not shown) [R-ACV, Ricinoleicacid-acyclovir]: the EC50 in [1] (MS strain, HFF cells) was 3.4 µM; in data set [2] (setting [10]) it was 10.7 µM; in data set [3] (E-377 strain, HFF cells), 8.3 µM; in data set [4], 46.5 µM. The 90% effect concentration (EC90) in data set [1] (MS strain, HFF cells) is 8.89 µM; in [2] (setting [10]) it was 49.5 µM; in data set [3] (E-377 strain, HFF cells), 168 µM; in data set [4] it was more than 300 µM. For the same compound, the CC50 with HFF cells is more than 300 µM; with Akata cells it was more than 60 µM.

Consider `Nc1nc2c(ncn2COCCO)c(=O)[nH]1` [ACV, Acyclovir, reference compound], for which the concentration for a half-maximal effect (EC50) is 5.98 µM in data set [1] (Human alphaherpesvirus 2, HFF); 12.4 µM in [2] (setting [11]); 3.43 µM in data set [3] (Human alphaherpesvirus 1, HFF). Also, the concentration for an effect of 90% (EC90) in data set [1] (Human alphaherpesvirus 2, HFF) is more than 100 µM; in data set [2] (setting [11]), 67.3 µM; in [3] (Human alphaherpesvirus 1, HFF), more than 100 µM. For the same compound, the CC50 in “in vitro [5]”, in the data set on HFF cells (human) and in the data set “in vitro [6]” was more than 100 µM each time.

As for `CCCCCCC(CCCCCCCCCCC(=O)OCCOCn1cnc2c(=O)[nH]c(N)nc21)OC(=O)CCCC[C@@H]1SC[C@@H]2NC(=O)N[C@@H]21` (stereo partly shown) [B-12HS-ACV, Biotin-12hydroxystearicacid-acyclovir], the EC50 in data set [1] (MS strain, HFF cells) was less than 0.096 µM; in [2] (setting [10]), 37.2 µM; in data set [3] (E-377 strain, HFF cells), less than 0.096 µM; in data set [4], more than 300 µM. Also, the EC90 is 4.65 µM in data set [1] (MS strain, HFF cells); more than 60 µM in data set [2] (setting [10]); 0.42 µM in data set [3] (E-377 strain, HFF cells); more than 300 µM in [4]. For the same compound, in data set [7], the “Cornea Rate constant” value was 1.78 ± 0.29 k×10^3 min^−1 mg protein^-1. Also, in the data set with HCEC cells, the “Uptake in the presence of a sodium free buffer (reduced to)” value was approximately 41%. Also, the figures for the cytotoxic concentration (CC50) with HFF cells and in the data set with Akata cells were more than 300 µM and more than 60 µM, respectively.

`Nc1nc2c(ncn2COCCOC(=O)CCCC[C@@H]2SC[C@@H]3NC(=O)N[C@@H]32)c(=O)[nH]1` [B-ACV, Biotin-acyclovir]: in data set [1] (MS strain, HFF cells), the EC50 was more than 300 µM and the EC90 is more than 300 µM. Also, the “Degradation in ICB homogenate (in words)” value in data set [8] is given as “complete degradation”. For the same compound, in [7], the “Cornea Half-life” value stood at 5.80 ± 0.49 h and the “Cornea Rate constant” value is reported as 1.99 ± 0.21 k×10^3 min^−1 mg protein^-1. In [2] (setting [10]), the half-maximal effective concentration (EC50) was determined as 22.3 µM and the EC90 was found to be 52.8 µM. In data set [3] (E-377 strain, HFF cells), the concentration for a half-maximal effect (EC50) amounted to 182 µM and the EC90 was more than 300 µM. In the data set with HCEC cells, the “Uptake in the presence of a sodium free buffer (reduced to)” value is approximately 45%. Also, in data set [9], the “Degradation in lens homogenate (in words)” value was “complete degradation”. Besides, in the data set with Akata cells, the half-maximal cytotoxic concentration (CC50) was more than 60 µM.

On to `Nc1nc(O)c2ncn(COC(CO)CO)c2n1` [GCV, Ganciclovir, reference compound], for which the CC50 in the data set “in vitro [5]” was more than 100 µM.
